Reference: US20080004253A1, “Thiazolopyrimidine modulators of TRPV1” (priority 2006, published 2008)
pIC50: −log10 of the molar value.

Tests used:
human TRPV1 = target: T1, human TRPV1 (Homo sapiens, UniProt Q8NER1); experiment: Functional assay: block of capsaicin-induced Ca2+ influx, human assay (hTRPV1/HEK293, FLIPR); format: cell-based; conditions: hTRPV1/HEK293 cells, 150 nM capsaicin challenge, Fluo-3 fluorescence; mean; > value = solubility limit in assay medium
T1 construct: expressed in transfected cells; host or cells: HEK293 (hTRPV1/HEK293), zeocin selection
Outline: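 HEK293 cells stably expressing human TRPV1, fluo3-loaded, preincubated 30 min with compound (serial 3-fold dilutions from 10 μM, duplicate) in 20 μM Ca2+ buffer. Capsaicin response taken as fluo3 fluorescence change before vs 100 s after agonist; IC50 by non-linear regression, mean values; free base or TFA salt.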

rat TRPV1 = target: T2, rat TRPV1 (Rattus norvegicus, UniProt O35433); experiment: Functional assay: block of capsaicin-induced Ca2+ influx, rat assay (rTRPV1/HEK293, FLIPR); format: cell-based; conditions: rTRPV1/HEK293 cells, capsaicin challenge, Fluo-3 fluorescence; mean; > value = solubility limit in assay medium
T2 construct: expressed in transfected cells; host or cells: HEK293 (rTRPV1/HEK293), geneticin selection
Outline: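 Compounds, as free base or TFA salt, tested from 10 μM in three-fold steps on rTRPV1-transfected HEK293 cells, with 30 min preincubation in low-calcium (20 μM) buffer. Capsaicin-evoked Ca2+ influx measured by FLIPR fluo3 signal before and 100 s after addition. Averaged IC50 from non-linear fits.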

T2 sequence (O35433 whole entry): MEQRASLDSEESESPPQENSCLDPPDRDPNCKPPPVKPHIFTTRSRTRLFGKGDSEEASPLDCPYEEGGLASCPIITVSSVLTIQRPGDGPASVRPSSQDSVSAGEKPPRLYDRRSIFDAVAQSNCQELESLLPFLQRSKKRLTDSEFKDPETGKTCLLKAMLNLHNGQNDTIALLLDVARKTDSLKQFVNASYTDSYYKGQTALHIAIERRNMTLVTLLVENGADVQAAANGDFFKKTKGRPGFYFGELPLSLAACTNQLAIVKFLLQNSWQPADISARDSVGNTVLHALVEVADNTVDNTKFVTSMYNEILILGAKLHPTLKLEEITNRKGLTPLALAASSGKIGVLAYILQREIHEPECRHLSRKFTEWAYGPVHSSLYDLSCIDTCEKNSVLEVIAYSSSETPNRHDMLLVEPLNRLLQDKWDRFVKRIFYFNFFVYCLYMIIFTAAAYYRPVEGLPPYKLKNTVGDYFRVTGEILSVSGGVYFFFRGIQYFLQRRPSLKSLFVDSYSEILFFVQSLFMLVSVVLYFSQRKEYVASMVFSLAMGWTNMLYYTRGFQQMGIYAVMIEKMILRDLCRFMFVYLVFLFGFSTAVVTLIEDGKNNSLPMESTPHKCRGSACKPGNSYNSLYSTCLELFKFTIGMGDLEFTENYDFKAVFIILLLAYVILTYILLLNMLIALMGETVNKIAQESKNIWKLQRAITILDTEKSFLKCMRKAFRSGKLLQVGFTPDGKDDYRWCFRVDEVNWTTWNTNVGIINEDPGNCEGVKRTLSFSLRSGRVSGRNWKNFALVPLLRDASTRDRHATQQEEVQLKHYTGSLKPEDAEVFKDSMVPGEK
T1 sequence (Q8NER1 whole entry): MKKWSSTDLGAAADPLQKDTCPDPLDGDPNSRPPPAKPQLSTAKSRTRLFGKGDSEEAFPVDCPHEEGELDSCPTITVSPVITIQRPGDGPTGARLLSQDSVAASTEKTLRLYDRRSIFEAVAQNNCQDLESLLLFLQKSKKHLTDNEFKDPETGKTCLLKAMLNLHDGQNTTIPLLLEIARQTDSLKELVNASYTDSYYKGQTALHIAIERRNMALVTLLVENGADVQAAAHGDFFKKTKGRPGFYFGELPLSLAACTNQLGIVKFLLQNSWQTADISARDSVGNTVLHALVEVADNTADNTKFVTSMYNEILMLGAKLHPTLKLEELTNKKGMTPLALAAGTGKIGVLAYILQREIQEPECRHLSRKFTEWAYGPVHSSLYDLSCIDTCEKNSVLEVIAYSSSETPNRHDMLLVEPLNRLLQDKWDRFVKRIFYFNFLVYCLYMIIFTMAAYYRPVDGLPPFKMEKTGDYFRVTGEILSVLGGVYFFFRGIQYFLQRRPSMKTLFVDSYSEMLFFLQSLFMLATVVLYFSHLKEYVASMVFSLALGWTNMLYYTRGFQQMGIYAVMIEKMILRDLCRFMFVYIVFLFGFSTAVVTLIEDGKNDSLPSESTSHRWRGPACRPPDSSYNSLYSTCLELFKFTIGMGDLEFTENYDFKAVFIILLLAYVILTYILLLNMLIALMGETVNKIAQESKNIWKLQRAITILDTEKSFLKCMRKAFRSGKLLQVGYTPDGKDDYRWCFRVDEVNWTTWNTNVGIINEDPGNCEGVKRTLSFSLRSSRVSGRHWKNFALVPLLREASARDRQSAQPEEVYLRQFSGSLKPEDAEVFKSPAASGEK

SMILES	pIC50 (human TRPV1)	pIC50 (rat TRPV1)
Cc1nc(Nc2ccc(S(=O)(=O)N(C)C)cc2)c2nc(Nc3ncccc3C)sc2n1 [Example 212, N,N-Dimethyl-4-[5-methyl-2-(3-methyl-pyridin-2-ylamino)-thiazolo[5,4-d]pyrimidin-7-ylamino]-benzenesulfonamide]	≤ 5.18	≤ 5.18
Cc1cccnc1Nc1nc2c(Nc3ccc(C(F)(F)F)cc3)ncnc2s1 [Example 213, N^2-(3-Methyl-pyridin-2-yl)-N^7-(4-trifluoromethyl-phenyl)-thiazolo[5,4-d]pyrimidine-2,7-diamine]	≤ 5.18	≤ 5.18
O=S(=O)(c1ccc(Nc2ncnc3sc(Nc4c(Cl)cncc4Cl)nc23)cc1)N1CCCC1 [Example 214, N^2-(3,5-Dichloro-pyridin-4-yl)-N^7-[4-(pyrrolidine-1-sulfonyl)-phenyl]thiazolo[5,4-d]pyrimidine-2,7-diamine]	6.04	6.62
Fc1cc(Nc2ncnc3sc(Nc4c(Cl)cccc4Cl)nc23)ccc1C(F)(F)F [Example 215, N^2-(2,6-Dichloro-phenyl)-N^7-(3-fluoro-4-trifluoromethyl-phenyl)-thiazolo[5,4-d]pyrimidine-2,7-diamine]	7.82	8.10
O=S(=O)(c1ccc(Nc2ncnc3sc(Nc4ccccc4Cl)nc23)cc1)N1CCOCC1 [Example 216, N^2-(2-Chlorophenyl)-N^7-[4-(morpholin-4-ylsulfonyl)phenyl][1,3]thiazolo[5,4-d]pyrimidine-2,7-diamine]	7.62	7.82
Cc1ccccc1Nc1nc2c(Nc3ccc(S(=O)(=O)N4CCOCC4)cc3)ncnc2s1 [Example 217, N^2-(2-Methylphenyl)-N^7-[4-(morpholin-4-ylsulfonyl)phenyl][1,3]thiazolo[5,4-d]pyrimidine-2,7-diamine]	8.10	8.40
Cc1ccccc1Nc1nc2c(Nc3ccc(C(F)(F)F)nc3)ncnc2s1 [Example 218, N^2-(2-Methylphenyl)-N^7-[6-(trifluoromethyl)pyridin-3-yl][1,3]thiazolo[5,4-d]pyrimidine-2,7-diamine]	7.26	7.62
FC(F)(F)c1ccc(Nc2ncnc3sc(Nc4ccccc4C(F)(F)F)nc23)cn1 [Example 219, N^2-[2-(Trifluoromethyl)phenyl]-N^7-[6-(trifluoromethyl)pyridin-3-yl][1,3]thiazolo[5,4-d]pyrimidine-2,7-diamine]	6.98	7.12
FC(F)(F)c1ccc(Nc2ncnc3sc(Nc4ccccc4Cl)nc23)cn1 [Example 220, N^2-(2-Chlorophenyl)-N^7-[6-(trifluoromethyl)pyridin-3-yl][1,3]thiazolo[5,4-d]pyrimidine-2,7-diamine]	7.37	7.42
Cc1noc(C)c1Nc1nc2c(Nc3ccc(S(=O)(=O)N4CCOCC4)cc3)ncnc2s1 [Example 221, N^2-(3,5-Dimethylisoxazol-4-yl)-N^7-[4-(morpholin-4-ylsulfonyl)phenyl][1,3]thiazolo[5,4-d]pyrimidine-2,7-diamine]	5.97	6.57
COC(=O)C(C)(C)c1ccc(Nc2ncnc3sc(Nc4c(C)noc4C)nc23)cc1 [Example 222, Methyl 2-[4-({2-[(3,5-dimethylisoxazol-4-yl)amino][1,3]thiazolo[5,4-d]pyrimidin-7-yl}amino)phenyl]-2-methylpropanoate]	7.00	7.14
Cc1noc(C)c1Nc1nc2c(Nc3ccc(C(C)(C)C#N)cc3)ncnc2s1 [Example 223, 2-[4-({2-[(3,5-Dimethylisoxazol-4-yl)amino][1,3]thiazolo[5,4-d]pyrimidin-7-yl}amino)phenyl]-2-methylpropanenitrile]	6.77	7.02
Cc1noc(C)c1Nc1nc2c(Nc3ccc(S(C)(=O)=O)cc3)ncnc2s1 [Example 224, N^2-(3,5-Dimethylisoxazol-4-yl)-N^7-[4-(methylsulfonyl)phenyl][1,3]thiazolo[5,4-d]pyrimidine-2,7-diamine]	5.26	5.80
FC(F)(F)c1ccc(Nc2ncnc3sc(Nc4ccccc4C(F)(F)F)nc23)cc1 [Example 225, N^2-[2-(Trifluoromethyl)phenyl]-N^7-[4-(trifluoromethyl)phenyl][1,3]thiazolo[5,4-d]pyrimidine-2,7-diamine]	7.04	7.49
CS(=O)(=O)c1ccc(Nc2ncnc3sc(Nc4ccccc4C(F)(F)F)nc23)cc1 [Example 226, N^7-[4-(Methylsulfonyl)phenyl]-N^2-[2-(trifluoromethyl)phenyl][1,3]thiazolo[5,4-d]pyrimidine-2,7-diamine]	6.25	6.87
Oc1ccc(Nc2ncnc3sc(Nc4c(Cl)cccc4Cl)nc23)cc1O [Example 227, 4-({2-[(2,6-Dichlorophenyl)amino][1,3]thiazolo[5,4-d]pyrimidin-7-yl}amino)benzene-1,2-diol]	< 5.18	< 5.18
CC(C)(C#N)c1ccc(Nc2ncnc3sc(Nc4c(Cl)cccc4Cl)nc23)cc1 [Example 228, 2-[4-({2-[(2,6-Dichlorophenyl)amino][1,3]thiazolo[5,4-d]pyrimidin-7-yl}amino)phenyl]-2-methylpropanenitrile]	7.00	7.01
COC(=O)C(C)(C)c1ccc(Nc2ncnc3sc(Nc4c(Cl)cccc4Cl)nc23)cc1 [Example 229, Methyl 2-[4-({2-[(2,6-dichlorophenyl)amino][1,3]thiazolo[5,4-d]pyrimidin-7-yl}amino)phenyl]-2-methylpropanoate]	6.86	7.15
CC(C)(C(=O)O)c1ccc(Nc2ncnc3sc(Nc4c(Cl)cccc4Cl)nc23)cc1 [Example 230, 2-[4-({2-[(2,6-Dichlorophenyl)amino][1,3]thiazolo[5,4-d]pyrimidin-7-yl}amino)phenyl]-2-methylpropanoic acid]	7.37	8.70
CC(C)OC(=O)C(C)(C)c1ccc(Nc2ncnc3sc(Nc4c(Cl)cccc4Cl)nc23)cc1 [Example 231, 1-Methylethyl 2-[4-({2-[(2,6-dichlorophenyl)amino][1,3]thiazolo[5,4-d]pyrimidin-7-yl}amino)phenyl]-2-methylpropanoate]	6.16	7.09
FC(F)(F)c1ccc(Nc2ncnc3sc(NC4CCCCC4)nc23)cc1 [Example 232, N^2-Cyclohexyl-N^7-[4-(trifluoromethyl)phenyl][1,3]thiazolo[5,4-d]pyrimidine-2,7-diamine]	< 5.18	5.50
FC(F)(F)c1ccc(Nc2ncnc3sc(NC4CCCCC4)nc23)cn1 [Example 233, N^2-Cyclohexyl-N^7-[6-(trifluoromethyl)pyridin-3-yl][1,3]thiazolo[5,4-d]pyrimidine-2,7-diamine]	5.15	5.11
N#Cc1cc(Cl)c(Nc2nc3c(Nc4ccc(C(F)(F)F)cc4)ncnc3s2)c(Cl)c1 [Example 234, 3,5-Dichloro-4-[7-(4-trifluoromethyl-phenylamino)-thiazolo[5,4-d]pyrimidin-2-ylamino]-benzonitrile]	6.85	7.17
NC(=O)c1cc(Cl)c(Nc2nc3c(Nc4ccc(C(F)(F)F)cc4)ncnc3s2)c(Cl)c1 [Example 235, 3,5-Dichloro-4-[7-(4-trifluoromethyl-phenylamino)-thiazolo[5,4-d]pyrimidin-2-ylamino]-benzamide]	7.05	7.21
